US8632767B2, “3-[1-(3-haloalkyl)triazolyl]phenyl sulphide derivatives as acaricides and insecticides” (Bayer Intellectual Property GmbH, priority 2009, dated 2014)

Tests used:
[1] = log P by HPLC on reversed-phase C18, LC-MS, pH 2.7, formic acid (HCOOH); format: physicochemical; details: reversed-phase C18 HPLC column; HPLC C18, pH 2.7, 0.1% aqueous formic acid/acetonitrile
Method: The log P values reported in the table above and in the preparation examples were determined in accordance with EEC Directive 79/831 Annex V.A8 by HPLC (High Performance Liquid Chromatography) on reversed-phase columns (C18), with the following methods: ^[b] The determination is made by LC-MS in the acid range at pH 2.7 with 0.1% aqueous formic acid and acetonitrile (containing 0.1% formic acid) as eluents; linear gradient from 10% acetonitrile to 95% acetonitrile. Calibration took place with unbranched alkan-2-ones (having 3 to 16 carbon atoms) of known log P values (log P values determined from the retention times by linear interpolation between two successive alkanones).

[2] = tested on: greenhouse red spidermite (Tetranychus urticae); test: Tetranychus test; OP resistant (TETRUR spray treatment), Example 3; format: in vivo; details: foliar, 144 h, spray on bean leaf discs, after 6 days, read-out: effect (mites killed)
Method: Solvents: 78.0 parts by weight of acetone • • 1.5 parts by weight of dimethylformamide Emulsifier: 0.5 part by weight of alkylaryl polyglycol ether An appropriate preparation of active compound is prepared by mixing 1 part by weight of active compound with the stated amounts of solvent and emulsifier and diluting the concentrate with emulsifier-containing water to the desired concentration. Leaf discs of bean (Phaseolus vulgaris) infested by all stages of the greenhouse red spidermite (Tetranychus urticae) are sprayed with a preparation of active compound at the desired concentration. After 6 days, the effect in % is determined. Here, 100% means that all of the mites have been killed; 0% means that no mites have been killed.

[3] = tested on: Boophilus microplus; test: Boophilus microplus test (BOOPMI injection); format: in vivo; details: Rhipicephalus microplus, 168 h; 20 μg/animal, injection into abdomen, after 7 days; read-out: activity (no fertile eggs laid)
Method: Solvent: Dimethyl Sulphoxide An appropriate preparation of active compound is prepared by mixing 10 mg of active compound with 0.5 ml of solvent and diluting the concentrate with solvent to the desired concentration. The solution of active compound is injected into the abdomen (Boophilus microplus) and the animals are transferred into dishes and kept in a controlled atmosphere. The activity is assessed on the basis of deposition of fertile eggs. After 7 days, the effect in % is determined. Here, 100% means that none of the ticks has laid fertile eggs.

[4] = tested on: larvae of the mustard beetle (Phaedon cochleariae); test: Phaedon test (PHAECO spray treatment); format: in vivo; details: foliar, 168 h, spray on Chinese cabbage leaf discs, after 7 days, read-out: effect (beetle larvae killed)
Method: Solvents: 78.0 parts by weight of acetone • • 1.5 parts by weight of dimethylformamide Emulsifier: 0.5 part by weight of alkylaryl polyglycol ether An appropriate preparation of active compound is prepared by mixing 1 part by weight of active compound with the stated amounts of solvent and emulsifier and diluting the concentrate with emulsifier-containing water to the desired concentration. Leaf discs of Chinese cabbage (Brassica pekinensis) are sprayed with a preparation of active compound at the desired concentration and, after they have dried, are populated with larvae of the mustard beetle (Phaedon cochleariae). After 7 days, the effect in % is determined. Here, 100% means that all of the beetle larvae have been killed; 0% means that no beetle larvae have been killed.

Row | SMILES | chromatographic logP [1] | pest or weed control at 500 g/ha [2] [%] | pest or weed control at 100 g/ha [2] [%] | pest or weed control at 0.02 mg [3] [%] | pest or weed control at 500 g/ha [4] [%]
1 | Cc1ccc(-n2cnc(C(F)F)n2)c(F)c1 [IV-A-3] | 2.31 | 90 | – | – | –
2 | Cc1cc(C)c([S+]([O-])CC2CC2)cc1-n1cnc(C(F)F)n1 (stereo not shown) [I-A-33] | 2.05 | 100 | – | – | –
3 | Cc1ccc(NNC(=O)C(F)(F)C(F)(F)Cl)c(C)c1 [V-1] | 2.96 | 90 | – | – | –
4 | Cc1cc(C)c([S+]([O-])CC(F)(F)C(F)(F)F)cc1-n1cnc(C(F)F)n1 (stereo not shown) [I-A-35] | 2.72 | – | 100 | – | –
5 | Cc1cc(C)c([S+]([O-])CCC(F)(F)F)cc1-n1cnc(C(F)F)n1 (stereo not shown) [I-A-17] | 2.28 | – | 100 | 100 | –
6 | Cc1ccc(N/N=C(\N)C(F)F)c(Cl)c1 [X-1] | 2.5 | – | – | – | –
7 | Cc1cc(F)c(-n2cnc(C(F)F)n2)cc1SCC#N [I-A-24] | 2.31 | 100 | – | – | –
8 | Cc1ccc(NNC(=O)C(F)F)c(F)c1 [V-5] | 1.66 | – | – | – | –
9 | Cc1cc(C)c(-n2cnc(C(F)F)n2)cc1SSc1cc(-n2cnc(C(F)F)n2)c(C)cc1C [II-A-1, 1,1′-[Disulphanediylbis(4,6-dimethylbenzene-3,1-diyl)]bis[3-(difluoromethyl)-1H-1,2,4-triazole]] | 4.45 | – | – | – | –
10 | Cc1cc(C)c([S+]([O-])CC(F)(F)F)cc1-n1cnc(C(F)(F)C(F)(F)F)n1 (stereo not shown) [I-A-10] | 3.27 | 100 | – | 100 | 100
11 | Cc1cc(F)c(-n2cnc(C(F)F)n2)cc1[S+]([O-])CC(F)F (stereo not shown) [I-A-23] | 1.81 | 100 | – | – | 100
12 | Cc1cc(C)c([S+]([O-])CC(F)(F)C(F)F)cc1-n1cnc(C(F)F)n1 (stereo not shown) [I-A-32] | 2.35 | – | 100 | – | –
13 | Cc1ccc(-n2cnc(C(F)(F)C(F)(F)F)n2)c(C)c1 [IV-A-5] | 3.78 | – | – | – | –
14 | Cc1cc(C)c([S+]([O-])CC(F)F)cc1-n1cnc(C(F)(F)C(F)(F)F)n1 (stereo not shown) [I-A-8] | 2.95 | – | 100 | 100 | –
15 | CSc1cc(-n2cnc(C(F)F)n2)c(C)cc1C [I-A-18] | 3.01 | 100 | – | – | –
16 | Cc1cc(C)c([S+]([O-])CC#N)cc1-n1cnc(C(F)F)n1 (stereo not shown) [I-A-25] | 1.49 | 100 | – | – | –
17 | Cc1cc(C)c(-n2cnc(C(F)(F)C(F)(F)F)n2)cc1SSc1cc(-n2cnc(C(F)(F)C(F)(F)F)n2)c(C)cc1C [II-A-4] | 6.36 | – | – | – | –

Row | SMILES | chromatographic logP [1] | pest or weed control at 500 g/ha [2] [%] | pest or weed control at 100 g/ha [2] [%] | pest or weed control at 0.02 mg [3] [%] | pest or weed control at 500 g/ha [4] [%]
18 | N/C(=N\Nc1ccc(F)cc1)C(F)F [X-3] | 1.34 | – | – | – | –
19 | Cc1cc(C)c(-n2cnc(C(F)F)n2)cc1SCC(F)(F)C(F)F [I-A-19] | 3.37 | – | 100 | – | –
20 | Cc1cc(F)c(-n2cnc(C(F)F)n2)cc1SCC(F)F [I-A-6] | 2.94 | – | 100 | – | 100
21 | Cc1ccc(-n2cnc(C(F)F)n2)cc1SSc1cc(-n2cnc(C(F)F)n2)ccc1C [II-A-7] | 4.19 | – | – | – | –
22 | Cc1cc(C)c([S+]([O-])CC2CC2)cc1-n1cnc(C(F)(F)C(F)(F)F)n1 (stereo not shown) [I-A-11] | 3.11 | – | 100 | 100 | –
23 | Cc1ccc(-n2cnc(C(F)(F)C(F)(F)Cl)n2)c(C)c1 [IV-A-1] | 3.88 | – | – | – | –
24 | Cc1cc(C)c([S+](C)[O-])cc1-n1cnc(C(F)F)n1 (stereo not shown) [I-A-21] | 1.46 | 80 | – | – | –
25 | Cc1cc(C)c(-n2cnc(C(F)(F)C(F)(F)Cl)n2)cc1SSc1cc(-n2cnc(C(F)(F)C(F)(F)Cl)n2)c(C)cc1C [II-A-6] | 6.62 | – | – | – | –
26 | Cc1ccc(-n2cnc(C(F)(F)C(F)F)n2)c(C)c1 [IV-A-6] | 3.08 | – | – | – | –
27 | Cc1ccc(NNC(=O)C(F)(F)C(F)(F)F)c(C)c1 [V-2] | 2.91 | – | – | – | –
28 | Cc1cc(F)c(-n2cnc(C(F)F)n2)cc1SSc1cc(-n2cnc(C(F)F)n2)c(F)cc1C [II-A-2] | 4.33 | – | – | – | –
29 | Cc1cc(C)c(-n2cnc(C(F)F)n2)cc1SCC(F)(F)C(F)(F)F [I-A-37] | 3.86 | – | 100 | – | –
30 | Cc1cc(C)c(-n2cnc(C(F)F)n2)cc1SCCC(F)(F)F [I-A-36] | 3.68 | – | 100 | 100 | –
31 | Cc1ccc(NNC(=O)C(F)(F)C(F)F)c(C)c1 [V-3] | 2.46 | – | – | – | –
32 | Cc1ccc(-n2cnc(C(F)F)n2)cc1 [IV-A-7] | 2.26 | – | – | – | –
33 | Cc1cc(C)c(-n2cnc(C(F)(F)C(F)(F)F)n2)cc1SCC(F)F [I-A-7] | 4.22 | – | 100 | 100 | –
34 | Cc1ccc(NNC(=O)C(F)F)cc1 [V-4] | 1.46 | – | – | – | –

Second part, led by results:

Row | chromatographic logP [1] | SMILES | pest or weed control at 500 g/ha [2] [%] | pest or weed control at 100 g/ha [2] [%] | pest or weed control at 0.02 mg [3] [%] | pest or weed control at 500 g/ha [4] [%]
35 | 2.46 | Cc1ccc(-n2cnc(C(F)F)n2)c(Cl)c1 [IV-A-4] | – | – | – | –
36 | 1.37 | Cc1cc(F)c(-n2cnc(C(F)F)n2)cc1[S+](C)[O-] (stereo not shown) [I-A-22] | 80 | – | – | –
37 | 3.81 | Cc1cc(F)c(-n2cnc(C(F)F)n2)cc1SCC1CC1 [I-A-31] | – | 100 | – | 100
38 | 2.93 | CSc1cc(-n2cnc(C(F)F)n2)c(F)cc1C [I-A-38] | 100 | – | – | –
39 | 3.02 | Cc1cc(C)c([S+]([O-])CC(F)F)cc1-n1cnc(C(F)(F)C(F)(F)Cl)n1 (stereo not shown) [I-A-12] | – | 100 | 100 | 100
40 | 4.53 | Cc1cc(Cl)c(-n2cnc(C(F)F)n2)cc1SSc1cc(-n2cnc(C(F)F)n2)c(Cl)cc1C [II-A-3] | – | – | – | –
41 | 3.46 | Cc1cc(C)c([S+]([O-])CC(C)C)cc1-n1cnc(C(F)(F)C(F)(F)F)n1 (stereo not shown) [I-A-39] | – | 100 | 100 | –
42 | 1.4 | Cc1cc(F)c(-n2cnc(C(F)F)n2)cc1[S+]([O-])CC#N (stereo not shown) [I-A-26] | 100 | – | – | –
43 | 3.85 | Cc1cc(C)c(-n2cnc(C(F)F)n2)cc1SCC1CC1 [I-A-13] | – | 100 | – | –
44 | 2.47 | Cc1cc(C)c(-n2cnc(C(F)F)n2)cc1SCC#N [I-A-20] | 100 | – | – | –
45 | 4.49 | Cc1cc(C)c(-n2cnc(C(F)(F)C(F)(F)F)n2)cc1SCC(F)(F)F [I-A-28] | – | 100 | – | –
46 | 1.9 | Cc1cc(C)c([S+]([O-])CC(F)F)cc1-n1cnc(C(F)F)n1 (stereo not shown) [I-A-3] | – | 100 | 100 | –
47 | 3.65 | Cc1ccc(N/N=C(\N)C(F)(F)C(F)(F)F)c(C)c1 [X-2] | – | – | – | –
48 | 1.96 | Cc1cc(F)c(-n2cnc(C(F)F)n2)cc1[S+]([O-])CC1CC1 (stereo not shown) [I-A-29] | 100 | – | – | –
49 | 2.43 | Cc1ccc(-n2cnc(C(F)F)n2)c(C)c1 [IV-A-2, 3-(Difluoromethyl)-1-(2,4-dimethylphenyl)-1H-1,2,4-triazole] | 80 | – | – | –
50 | 5.22 | Cc1cc(C)c(-n2cnc(C(F)(F)C(F)F)n2)cc1SSc1cc(-n2cnc(C(F)(F)C(F)F)n2)c(C)cc1C [II-A-5] | – | – | – | –
51 | 3.24 | Cc1ccc(-n2cnc(C(F)F)n2)cc1SCC(F)(F)F [I-A-5] | – | 100 | 100 | 100
52 | 5.58 | Cc1cc(C)c(-n2cnc(C(F)(F)C(F)(F)F)n2)cc1SCC(C)C [I-A-34] | – | 100 | – | –
53 | 5.11 | Cc1cc(C)c(-n2cnc(C(F)(F)C(F)(F)F)n2)cc1SCC1CC1 [I-A-14] | – | 100 | – | –
